Laboratory results taken from ChEMBL document CHEMBL1201862, “PubChem BioAssay data set” (2004).
The source made the active and inactive calls.

Assays:
[1] = molecular target: T1, High affinity choline transporter 1 (Homo sapiens, UniProt Q9GZV3); test: CHT inhibitors, dose response, cell-based, 5-point CRC, membrane potential dye (AID 504840); assay type: functional
[2] = molecular target: T1, High affinity choline transporter 1; test: CHT inhibitors, dose response, cell-based, 10-point CRC, membrane potential dye (AID 588401); assay type: functional;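 note: membrane potential dye fluorescence of choline-evoked depolarization via CHT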
Large T antigen = Large T antigen (Simian virus 40, UniProt P03070); assay type: functional, Betapolyomavirus macacae;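 note: Confirmatory-stage PubChem screen for compounds that inhibit SV40 T antigen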
[3] = molecular target: T2, DNA dC->dU-editing enzyme APOBEC-3A (Homo sapiens, UniProt P31941); test: APOBEC3A DNA deaminase inhibitors, dose response, biochemical (AID 504722); assay type: functional
[4] = molecular target: T3, DNA dC->dU-editing enzyme APOBEC-3G (Homo sapiens, UniProt Q9HC16); test: Dose Response confirmation of small molecule APOBEC3G DNA Deaminase Inhibitors via a fluorescence-based single-stranded DNA deaminase assay. [Related pubchem assays (depositor defined):AID493012, AID493028]; assay type: functional
[5] = molecular target: T2, DNA dC->dU-editing enzyme APOBEC-3A; test: SAR analysis of small molecule inhibitors of APOBEC3A DNA Deaminase via a fluorescence-based single-stranded DNA deaminase assay - Set 2.; assay type: functional; details: read-out: IC50_Mean
[6] = molecular target: T3, DNA dC->dU-editing enzyme APOBEC-3G; test: SAR analysis of small molecule inhibitors of APOBEC3G DNA Deaminase via a fluorescence-based single-stranded DNA deaminase assay - Set 2.; assay type: functional; details: read-out: IC50_Mean
[7] = system: Streptococcus sp. 'group A'; test: growth inhibition of control SK(-) GAS strain, dose response, counter-screen for streptokinase expression inhibitor project, luminescence, kanamycin, BacTiterGlo, confirmation (AID 1900); assay type: functional, organism-based
Streptokinase A = molecular target: T4, Streptokinase A (Streptococcus pyogenes serotype M1, UniProt P10520); test: S. pyogenes streptokinase expression inhibitors, potency, dose response, plasminogen activation absorbance, OD405 (AID 1914); assay type: functional, Streptococcus pyogenes M1 GAS;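 note: secreted streptokinase activity via plasminogen activation per viability signal from cell pellet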
T4 sequence (P10520 whole entry): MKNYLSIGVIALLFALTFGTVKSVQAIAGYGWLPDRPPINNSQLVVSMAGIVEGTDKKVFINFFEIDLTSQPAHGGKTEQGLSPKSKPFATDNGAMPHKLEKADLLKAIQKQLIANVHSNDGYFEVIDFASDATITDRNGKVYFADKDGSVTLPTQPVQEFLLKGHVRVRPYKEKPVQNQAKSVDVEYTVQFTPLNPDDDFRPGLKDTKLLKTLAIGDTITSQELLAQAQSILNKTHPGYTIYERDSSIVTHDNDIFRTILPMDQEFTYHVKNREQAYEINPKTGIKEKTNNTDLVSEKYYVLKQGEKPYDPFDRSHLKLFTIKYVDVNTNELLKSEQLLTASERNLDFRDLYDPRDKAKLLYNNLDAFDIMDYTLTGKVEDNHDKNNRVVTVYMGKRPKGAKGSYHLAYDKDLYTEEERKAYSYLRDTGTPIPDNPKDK

NS3 = NS3 (Hepatitis C virus, UniProt A3EZJ3); test: PubChem AID 2173; parameters: species or system Hepacivirus hominis
Streptococcus = test: Group A Streptococcus viability loss, dose response, counter-screen for streptokinase expression inhibitor project, luminescence, BacTiterGlo (AID 1915); assay type: functional, organism-based;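 note: potency for reduction of bacterial viability or growth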
DNA topoisomerase = DNA topoisomerase (Yersinia pestis, UniProt A0A2S9PM60); test: Y. pestis Topo-I inhibitors, cleavage product readout, dose response, biochemical, cherry-pick (AID 588525)
Vero = Vero cell cytotoxicity, cytotoxicity control for flavivirus capping enzyme inhibitors (AID 588742); assay type: functional; details: Chlorocebus sabaeus
Genome polyprotein = Genome polyprotein (dengue virus type 2, UniProt P29990); test: Dengue-2 NS5 methyltransferase inhibitors, primary screen, biochemical, confirmation dose response (AID 588689); assay type: functional
[8] = molecular target: Beta-adrenergic receptor kinase 1 (Homo sapiens, UniProt P25098); test: aptamer displacement from bead-bound GRK2 – biochemical, cherry pick 1, bead flow cytometry, dose response (AID 504500)
[9] = molecular target: T5, Carboxy-terminal domain RNA polymerase II polypeptide A small phosphatase 1 (Homo sapiens, UniProt Q9GZU7); test: inhibitors of CTDSP1, concentration-response testing, biochemical assay, absorbance-based, actives from ultra-high-throughput screening (AID 540297); assay type: functional
T5 sequence (Q9GZU7 whole entry): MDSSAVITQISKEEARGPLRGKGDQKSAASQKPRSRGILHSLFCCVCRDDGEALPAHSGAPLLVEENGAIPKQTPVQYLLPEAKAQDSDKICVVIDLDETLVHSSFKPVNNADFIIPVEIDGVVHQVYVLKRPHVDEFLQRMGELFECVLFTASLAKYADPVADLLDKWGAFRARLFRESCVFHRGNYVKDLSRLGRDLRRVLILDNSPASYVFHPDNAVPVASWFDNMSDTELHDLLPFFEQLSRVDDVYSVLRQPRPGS

Melanocortin receptor 4 = Melanocortin receptor 4 (Homo sapiens, UniProt P32245); test: MC4R antagonist potency on cAMP, dose response, cell-based, TR-FRET, biased antagonists (AID 602298); assay type: functional;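 note: antagonist potency against agonist-stimulated cAMP production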
[10] = molecular target: 26S proteasome non-ATPase regulatory subunit 14 (Homo sapiens, UniProt O00487); test: inhibition of proteasome subunit RPN11 – biochemical, fluorescence polarization, uHTS hits, confirmation (AID 602368); assay type: functional
[11] = molecular target: 72 kDa type IV collagenase (Homo sapiens, UniProt P08253); test: Dose Response validation of uHTS RPN11 inhibitor hits using a MMP-2 Fluorescence assay.; assay type: functional
[12] = nonselective inhibitors of cellular cAMP signaling, dose response, counter-screen for MC4R biased antagonist project, cell-based, TR-FRET cAMP detection (AID 602305); assay type: functional;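 note: U2OS cells stimulated with forskolin near its EC80 as the cAMP inducer; potency is for inhibition of forskolin-stimulated cAMP signaling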
Prothrombin = Prothrombin (Bos taurus, UniProt P00735); test: thrombin inhibition, dose response, biochemical, fluorescence polarization, uHTS hits (AID 602369); assay type: functional
[13] = molecular target: Disintegrin and metalloproteinase domain-containing protein 17 (Homo sapiens, UniProt P78536); test: exosite inhibitors of ADAM17, dose response, biochemical (AID 743260)
[14] = ADAM10 protease inhibitors, dose response, selectivity assay for ADAM17 exosite inhibitor project, biochemical, FRET peptide substrate, recombinant human ADAM10 (AID 743259);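 note: ADAM10 enzyme cleaving a FRET peptide substrate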
[15] = blockers of SFLLRN-triggered platelet ATP secretion – cell-based, human platelets, luminescence, dry powder, dose response (AID 493100); assay type: functional
[16] = Luminescence Cell-Based Dose Response Follow up to Identify Inhibitors of Platelet Dense Granule Release. [Related pubchem assays (depositor defined):AID1663, AID1678, AID2398]; assay type: functional
[17] = molecular target: Multidrug resistance protein CDR2 (Candida albicans (strain SC5314 / ATCC MYA-2876) (Yeast), UniProt P78595); test: CaCDR2 efflux pump inhibitors in yeast, dose response, S. cerevisiae AD1-8u, singleplex, Cherry Pick1 hits (AID 588604); assay type: functional
Phospholipase D1 = Phospholipase D1 (Homo sapiens, UniProt Q13393); test: PLD1 inhibitor potency in cells, dose response (AID 602151); assay type: functional;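 note: cellular PLD1 assay in Calu-1 cells stimulated with PMA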
Phospholipase D2 = Phospholipase D2 (Homo sapiens, UniProt O14939); test: PLD2 inhibitor potency in cells, dose response (AID 602147); assay type: functional;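 note: cellular assay in HEK293 cells overexpressing GFP-tagged PLD2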
[18] = molecular target: Tyrosine-protein kinase JAK2 (Homo sapiens, UniProt O60674); assay type: functional;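 note: JAK2 tested as one member of a kinase panel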
[19] = molecular target: Serine/threonine-protein kinase Chk1 (Homo sapiens, UniProt O14757); assay type: functional;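 note: measured as one member of a kinome-wide kinase profiling panel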
[20] = molecular target: Dual specificity mitogen-activated protein kinase kinase 1 (Homo sapiens, UniProt Q02750); test: Navigating the Kinome. Panel member name: MAP2K1; assay type: functional
[21] = molecular target: 5'-AMP-activated protein kinase catalytic subunit alpha-1 (Homo sapiens, UniProt Q13131); assay type: functional
[22] = molecular target: Tyrosine-protein kinase BTK (Homo sapiens, UniProt Q06187); assay type: functional
[23] = molecular target: Tyrosine-protein kinase Fer (Homo sapiens, UniProt P16591); assay type: functional;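 note: FER tested as one member of a kinome panel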
[24] = molecular target: STE20-like serine/threonine-protein kinase (Homo sapiens, UniProt Q9H2G2); assay type: functional
[25] = molecular target: Fibroblast growth factor receptor 3 (Homo sapiens, UniProt P22607); assay type: functional
[26] = molecular target: Dual specificity mitogen-activated protein kinase kinase 2 (Homo sapiens, UniProt P36507); test: Navigating the Kinome. Panel member name: MAP2K2; assay type: functional
[27] = molecular target: Sphingosine 1-phosphate receptor 2 (Homo sapiens, UniProt O95136); test: Late-stage fluorescence-based dose-response cell-based counterscreen assay to identify agonists of the Sphingosine 1-Phosphate Receptor 3 (S1P3): Sphingosine 1-Phosphate Receptor 2 (S1P2) agonist assay.; assay type: functional
[28] = molecular target: T6, Sphingosine 1-phosphate receptor 4 (Homo sapiens, UniProt O95977); test: Late-stage fluorescence-based dose-response cell-based counterscreen assay to identify agonists of the Sphingosine 1-Phosphate Receptor 3 (S1P3): Sphingosine 1-Phosphate Receptor 4 (S1P4) agonist assay.; assay type: functional
T6 sequence (O95977 whole entry): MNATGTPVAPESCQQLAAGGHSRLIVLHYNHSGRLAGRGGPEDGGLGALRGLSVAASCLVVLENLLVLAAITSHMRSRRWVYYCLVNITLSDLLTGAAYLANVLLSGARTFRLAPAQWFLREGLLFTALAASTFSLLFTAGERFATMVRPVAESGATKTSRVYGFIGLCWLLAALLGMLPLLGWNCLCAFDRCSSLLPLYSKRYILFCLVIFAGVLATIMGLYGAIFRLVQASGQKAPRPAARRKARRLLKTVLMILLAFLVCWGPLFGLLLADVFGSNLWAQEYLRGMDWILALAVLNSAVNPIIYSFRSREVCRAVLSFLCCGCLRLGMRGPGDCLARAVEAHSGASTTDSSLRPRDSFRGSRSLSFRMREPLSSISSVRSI

[29] = molecular target: T7, V-type proton ATPase subunit c' (Saccharomyces cerevisiae S288c, UniProt P32842); test: Dose Response with BCECF Assay for V-ATPase inhibitors that increase vacuolar pH, Powder Set 1.; assay type: functional; details: read-out: EC50_MICROM
[30] = molecular target: T7, V-type proton ATPase subunit c'; test: Dose Response of Small Molecules that Regulate V-ATPase Proton Transport in Yeast using pHLuorin, Powder Set1.; assay type: functional; details: read-out: EC50_MICROM

T3 sequence (Q9HC16 whole entry): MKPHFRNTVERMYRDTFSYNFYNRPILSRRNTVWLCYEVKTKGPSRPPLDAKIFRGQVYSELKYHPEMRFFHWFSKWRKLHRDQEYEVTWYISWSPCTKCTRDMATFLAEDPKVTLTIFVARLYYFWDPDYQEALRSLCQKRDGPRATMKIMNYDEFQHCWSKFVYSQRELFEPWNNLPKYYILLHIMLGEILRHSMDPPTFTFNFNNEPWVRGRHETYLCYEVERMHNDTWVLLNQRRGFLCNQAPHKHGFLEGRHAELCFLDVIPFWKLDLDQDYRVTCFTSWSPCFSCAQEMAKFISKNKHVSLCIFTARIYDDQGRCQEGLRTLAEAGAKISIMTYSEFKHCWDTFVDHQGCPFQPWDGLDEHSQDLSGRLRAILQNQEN
T2 sequence (P31941 whole entry): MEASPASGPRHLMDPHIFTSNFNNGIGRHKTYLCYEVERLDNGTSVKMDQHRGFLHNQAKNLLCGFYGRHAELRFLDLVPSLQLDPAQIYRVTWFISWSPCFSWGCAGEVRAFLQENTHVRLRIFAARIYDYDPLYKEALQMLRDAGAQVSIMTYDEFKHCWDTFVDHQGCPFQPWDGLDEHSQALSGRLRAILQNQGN
T1 sequence (Q9GZV3 whole entry): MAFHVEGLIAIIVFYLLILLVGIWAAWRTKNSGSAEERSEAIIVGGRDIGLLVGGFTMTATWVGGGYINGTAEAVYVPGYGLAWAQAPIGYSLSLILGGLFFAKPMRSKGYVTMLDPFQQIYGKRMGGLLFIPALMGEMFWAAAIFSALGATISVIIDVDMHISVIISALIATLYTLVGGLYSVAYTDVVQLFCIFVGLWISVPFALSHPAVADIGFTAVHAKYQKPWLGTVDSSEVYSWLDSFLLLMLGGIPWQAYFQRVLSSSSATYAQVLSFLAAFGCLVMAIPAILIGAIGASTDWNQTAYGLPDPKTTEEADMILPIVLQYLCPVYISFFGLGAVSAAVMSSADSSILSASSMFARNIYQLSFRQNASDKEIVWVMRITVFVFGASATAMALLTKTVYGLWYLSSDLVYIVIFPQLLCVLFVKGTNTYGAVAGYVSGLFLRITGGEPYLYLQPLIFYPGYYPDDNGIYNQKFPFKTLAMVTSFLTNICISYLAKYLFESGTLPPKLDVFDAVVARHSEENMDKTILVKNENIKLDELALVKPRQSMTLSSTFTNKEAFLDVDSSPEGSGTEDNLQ
T7 sequence (P32842 whole entry): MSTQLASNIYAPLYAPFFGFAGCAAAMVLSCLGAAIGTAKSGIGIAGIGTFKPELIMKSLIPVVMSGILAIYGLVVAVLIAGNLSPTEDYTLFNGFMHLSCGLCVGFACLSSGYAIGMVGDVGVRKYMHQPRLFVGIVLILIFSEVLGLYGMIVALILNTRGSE
Chain of DNA topoisomerase (A0A2S9PM60 whole entry): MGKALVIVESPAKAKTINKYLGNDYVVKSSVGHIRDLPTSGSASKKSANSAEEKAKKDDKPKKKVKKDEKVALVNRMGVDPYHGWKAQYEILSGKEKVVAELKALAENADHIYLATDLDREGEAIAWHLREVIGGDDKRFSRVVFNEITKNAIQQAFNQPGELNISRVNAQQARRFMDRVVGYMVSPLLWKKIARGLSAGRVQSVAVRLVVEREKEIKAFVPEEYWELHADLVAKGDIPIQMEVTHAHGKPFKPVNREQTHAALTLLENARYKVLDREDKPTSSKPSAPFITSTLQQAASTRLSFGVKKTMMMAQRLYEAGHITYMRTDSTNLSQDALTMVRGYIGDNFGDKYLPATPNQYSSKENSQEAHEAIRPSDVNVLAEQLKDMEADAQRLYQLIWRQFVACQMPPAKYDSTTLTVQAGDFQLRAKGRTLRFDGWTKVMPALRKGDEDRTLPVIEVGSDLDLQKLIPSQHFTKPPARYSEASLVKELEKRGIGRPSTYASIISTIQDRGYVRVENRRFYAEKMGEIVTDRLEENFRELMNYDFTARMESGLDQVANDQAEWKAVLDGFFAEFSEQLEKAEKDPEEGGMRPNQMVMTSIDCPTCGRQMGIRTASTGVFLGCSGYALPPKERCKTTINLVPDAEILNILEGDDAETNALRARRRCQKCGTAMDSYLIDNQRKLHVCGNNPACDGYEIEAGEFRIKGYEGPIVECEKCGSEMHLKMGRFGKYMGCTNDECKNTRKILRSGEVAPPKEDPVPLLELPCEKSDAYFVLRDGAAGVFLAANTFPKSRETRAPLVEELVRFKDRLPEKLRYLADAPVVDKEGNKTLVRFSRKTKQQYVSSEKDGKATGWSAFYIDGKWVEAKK
Chain of Tyrosine-protein kinase BTK (Q06187 whole entry): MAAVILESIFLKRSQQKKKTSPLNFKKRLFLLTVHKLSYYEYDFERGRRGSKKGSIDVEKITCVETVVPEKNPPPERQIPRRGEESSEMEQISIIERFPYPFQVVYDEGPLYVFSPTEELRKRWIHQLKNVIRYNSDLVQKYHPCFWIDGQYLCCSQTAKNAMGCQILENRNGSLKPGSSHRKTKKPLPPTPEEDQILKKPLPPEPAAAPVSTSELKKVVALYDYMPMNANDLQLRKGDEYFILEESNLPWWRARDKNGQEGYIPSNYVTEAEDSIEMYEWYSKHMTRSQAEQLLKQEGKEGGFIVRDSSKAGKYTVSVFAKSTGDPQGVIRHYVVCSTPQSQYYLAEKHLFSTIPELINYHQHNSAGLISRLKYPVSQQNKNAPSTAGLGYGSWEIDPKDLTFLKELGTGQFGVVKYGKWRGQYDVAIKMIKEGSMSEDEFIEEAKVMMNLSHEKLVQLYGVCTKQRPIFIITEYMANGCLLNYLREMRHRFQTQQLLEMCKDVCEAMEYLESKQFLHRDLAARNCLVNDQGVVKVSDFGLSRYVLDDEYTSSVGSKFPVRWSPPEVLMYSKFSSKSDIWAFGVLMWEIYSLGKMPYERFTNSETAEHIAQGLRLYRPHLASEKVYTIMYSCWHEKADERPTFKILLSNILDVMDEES
Chain of Dual specificity mitogen-activated protein kinase kinase 1 (Q02750 whole entry): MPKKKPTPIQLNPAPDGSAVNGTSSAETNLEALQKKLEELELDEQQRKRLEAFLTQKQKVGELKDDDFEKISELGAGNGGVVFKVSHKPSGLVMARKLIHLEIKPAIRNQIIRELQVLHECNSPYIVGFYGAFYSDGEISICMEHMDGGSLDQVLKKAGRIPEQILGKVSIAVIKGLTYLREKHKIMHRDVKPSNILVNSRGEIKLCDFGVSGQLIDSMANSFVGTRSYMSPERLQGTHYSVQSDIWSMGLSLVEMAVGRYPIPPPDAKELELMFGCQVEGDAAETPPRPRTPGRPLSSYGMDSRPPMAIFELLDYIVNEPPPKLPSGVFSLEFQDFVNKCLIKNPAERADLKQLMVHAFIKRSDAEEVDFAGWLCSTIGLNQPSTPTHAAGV
Chain of 26S proteasome non-ATPase regulatory subunit 14 (O00487 whole entry): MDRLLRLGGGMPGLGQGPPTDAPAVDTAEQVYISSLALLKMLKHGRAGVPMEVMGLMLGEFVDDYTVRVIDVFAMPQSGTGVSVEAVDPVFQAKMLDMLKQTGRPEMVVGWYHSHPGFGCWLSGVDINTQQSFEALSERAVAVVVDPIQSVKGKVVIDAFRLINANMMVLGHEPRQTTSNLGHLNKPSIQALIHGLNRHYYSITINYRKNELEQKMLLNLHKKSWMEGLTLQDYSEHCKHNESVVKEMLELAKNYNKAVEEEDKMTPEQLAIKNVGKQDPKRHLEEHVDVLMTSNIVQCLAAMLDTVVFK
Chain of Phospholipase D1 (Q13393 whole entry): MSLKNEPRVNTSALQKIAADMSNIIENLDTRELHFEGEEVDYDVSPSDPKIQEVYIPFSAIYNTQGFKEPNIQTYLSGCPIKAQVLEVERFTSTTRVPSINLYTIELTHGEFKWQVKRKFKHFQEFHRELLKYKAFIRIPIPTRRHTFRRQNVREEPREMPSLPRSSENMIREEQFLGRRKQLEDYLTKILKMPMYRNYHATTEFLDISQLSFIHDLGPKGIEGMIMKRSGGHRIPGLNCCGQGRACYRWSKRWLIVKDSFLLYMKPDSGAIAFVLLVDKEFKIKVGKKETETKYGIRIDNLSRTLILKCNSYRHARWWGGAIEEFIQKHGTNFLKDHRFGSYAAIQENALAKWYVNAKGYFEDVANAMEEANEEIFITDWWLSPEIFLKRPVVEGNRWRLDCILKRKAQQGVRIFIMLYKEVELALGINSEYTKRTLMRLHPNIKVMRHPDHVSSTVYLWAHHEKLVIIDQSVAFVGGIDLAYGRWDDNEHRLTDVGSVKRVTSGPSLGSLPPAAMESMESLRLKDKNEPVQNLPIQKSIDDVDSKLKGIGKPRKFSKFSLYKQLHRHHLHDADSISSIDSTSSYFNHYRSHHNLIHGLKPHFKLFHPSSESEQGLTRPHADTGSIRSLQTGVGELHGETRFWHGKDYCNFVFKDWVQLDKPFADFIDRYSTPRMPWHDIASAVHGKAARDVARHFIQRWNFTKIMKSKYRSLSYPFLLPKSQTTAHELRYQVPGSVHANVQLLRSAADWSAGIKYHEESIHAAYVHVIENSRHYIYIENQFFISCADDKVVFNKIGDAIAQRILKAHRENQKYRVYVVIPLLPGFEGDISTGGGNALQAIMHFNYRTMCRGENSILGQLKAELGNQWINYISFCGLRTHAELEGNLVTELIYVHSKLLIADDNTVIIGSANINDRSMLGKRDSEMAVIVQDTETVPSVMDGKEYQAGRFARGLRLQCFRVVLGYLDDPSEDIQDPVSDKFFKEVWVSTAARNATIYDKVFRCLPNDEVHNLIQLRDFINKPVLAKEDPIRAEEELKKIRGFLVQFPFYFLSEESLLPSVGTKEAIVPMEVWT
Chain of Sphingosine 1-phosphate receptor 2 (O95136 whole entry): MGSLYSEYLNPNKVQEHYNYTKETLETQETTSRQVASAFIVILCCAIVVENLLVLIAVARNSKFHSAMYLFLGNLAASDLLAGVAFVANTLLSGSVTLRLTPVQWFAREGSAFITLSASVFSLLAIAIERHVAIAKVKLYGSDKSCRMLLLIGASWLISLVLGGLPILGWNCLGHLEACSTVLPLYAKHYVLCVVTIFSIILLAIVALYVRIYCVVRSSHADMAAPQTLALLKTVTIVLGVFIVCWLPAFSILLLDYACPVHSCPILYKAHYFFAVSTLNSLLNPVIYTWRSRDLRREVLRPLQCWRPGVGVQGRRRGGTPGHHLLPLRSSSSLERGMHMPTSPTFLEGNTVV

Structure (SMILES): CCCCC1C(=O)CC[C@H]2[C@@H]1CC(=O)[C@@H]2C/C=C\CCCC(=O)O (stereo partly specified)
- IC50 [1]: 2.13 µM (active)
- IC50 [2]: 2.38 µM (active)

Structure (SMILES): CCCn1c(=O)c2ccccc2n2c(=S)[nH]nc12
- IC50 (Large T antigen): 18.2 µM (active)
- IC50 [3]: > 100 µM (inactive)
- IC50 [4]: 2.87 µM (active)
- IC50 [5]: > 99 µM (inactive)
- IC50 [6]: > 99 µM (inactive)

Structure (SMILES): CCCOc1ccc(C(=O)C2=C(O)C(=O)N(c3ccccn3)C2c2ccc(OC)cc2)cc1C (stereo unspecified)
- EC50 [7]: 3.78 µM (active)
- EC50 (Streptokinase A): 103 µM (active)
- IC50 (NS3): 5.74 µM (active)
- EC50 (Streptococcus): 38.6 µM (active)
- AC50 (DNA topoisomerase): 5.07 µM (active)
- CC50 (Vero): > 40 µM (active)
- IC50 (Genome polyprotein): 74.3 µM (active)

Structure (SMILES): O=C(O)C1CC(=O)N(c2ccc3c(c2)OCCO3)C1 (stereo unspecified)
- EC50 [8]: 30.9 µM (inactive)
- IC50 [9]: 6.73 µM (active)

Structure (SMILES): O=C(NN=Cc1ccc(N(CCCl)CCCl)cc1)C(=O)c1c[nH]c2ccccc12
- IC50 (Melanocortin receptor 4): > 64.6 µM (inactive)
- IC50 [10]: 25.5 µM (active)
- IC50 [11]: > 100 µM (inactive)
- IC50 [12]: > 64.6 µM (inactive)
- IC50 (Prothrombin): 45.1 µM (active)
- IC50 [13]: > 69.5 µM (inactive)
- IC50 [14]: > 69.5 µM (inactive)

Structure (SMILES): Cc1ccc(-c2c(C#N)c(N)n(-c3ccccc3C)c(=O)c2C#N)cc1
- AC50 [15]: 12.6 µM (active)
- EC50 [16]: 2.03 µM (active)

Structure (SMILES): COc1ccc2c(-c3ccc(OCCN4CCOCC4)cc3)c(-c3ccccc3OC)sc2c1
- EC50 [17]: 13.3 µM (active)

Structure (SMILES): Cn1c(=O)n(C2CCN(CCNC(=O)c3ccc4ccccc4c3)CC2)c2ccccc21
- IC50 (Phospholipase D1): 1.5 µM (active)
- IC50 (Phospholipase D2): 1.9 µM (active)

Structure (SMILES): COc1cc(OC)nc(N2Cc3ccccc3CC2C(=O)O)n1 (stereo unspecified)
- Ki [18]: 2.51 µM (active)
- Ki [19]: 794 nM (active)

Structure (SMILES): Cc1cc(Nc2cc(N3CCN(C)CC3)nc(C=Cc3ccccc3)n2)n[nH]1
- Ki [20]: 501 nM (active)
- Ki [21]: 501 nM (active)
- Ki [22]: 501 nM (active)
- Ki [23]: 316 nM (active)
- Ki [24]: 501 nM (active)
- Ki [25]: 100 nM (active)
- Ki [26]: 316 nM (active)

Structure (SMILES): COc1ccc(-c2cc(C(=O)N(C3CCCCC3)C3CCCCC3)no2)cc1
- EC50 [27]: > 50 µM (inactive)
- EC50 [28]: > 50 µM (inactive)

Structure (SMILES): O=C(c1ccc([N+](=O)[O-])o1)N1CCN(c2cccc(Cl)c2)CC1
- EC50 [29]: 1.25 µM (active)
- EC50 [30]: 12.4 µM (active)
